Assay results taken from patent US20260216294A1, “BETA 2-ADRENERGIC RECEPTOR AGONISTS FOR TREATMENT OR PREVENTION OF MUSCLE WASTING” (ATROGI AB, priority 2023, published 2026).

Legend:
L6-myotubes [1] = experiment: Measurement of intracellular cAMP levels in differentiated L6-myotubes (Biological Example 3); type: cell-based; settings: 0.25 h
Description: (§1) Compounds described in publications referenced and incorporated herein were screened in accordance with the procedures outlined in Biological example 2 and Biological example 3.
Differentiated L6-myotubes were serum-starved overnight and stimulated with isoprenaline or the test compound with a final concentration of 1×10^−5 M, for 15 min in stimulation buffer (HBSS supplemented with 1% BSA, 5 mM HEPES and 1 mM IBMX, pH 7.4). The medium was aspirated and 100 μL of 95% EtOH was added to each well of the 24-well plate and cells were kept at −20° C. overnight. The EtOH was allowed to evaporate and 500 μL of lysis buffer (1% BSA, 5 mM HEPES and 0.3% Tween-20, pH 7.4) was added to each well. The plate was kept at −80° C. for 30 min and then at −20° C. until the day of detection when the samples were thawed. Intracellular cAMP levels were detected using an alpha screen cAMP kit (6760635D from Perkin Elmer).

L6-myotubes [2] = experiment: Glucose uptake in differentiated L6-myotubes (Biological Example 2); type: cell-based; settings: for Emax at 10 µM: read-out: Biological example 2 (GU)
Description: as §1
Differentiated L6-myotubes were serum-starved overnight in medium containing 0.5% fatty-acid free BSA and stimulated with isoprenaline or the test compound, with a final concentration of 1×10^−5 M. After 1 h 40 min the cells were washed with warm glucose free medium or PBS twice and another portion of agonist was added to the glucose free medium. After 20 min the cells were exposed to 50 nM ^3H-2-deoxyglucose for 10 min before washed with ice cold glucose free medium or PBS three times and lysed with 0.2 M NaOH, 400 μL/well, for 1 h at 60° C. The cell lysate was mixed with 4 mL scintillation buffer (Emulsifier Safe, Perkin Elmer) and the radioactivity was detected in a […] (Tri-Carb 4810TR, Perkin Elmer).

[3] = intracellular cAMP, compound at 10 μM relative to isoproterenol at 10 μM
[4] = glucose uptake, compound at 10 μM relative to isoproterenol at 10 μM
[5] = intracellular cAMP in differentiated L6-myotubes, compound at 10 μM, activity relative to isoproterenol at 10 μM
[6] = glucose uptake in differentiated L6-myotubes, compound at 10 μM, activity relative to isoproterenol at 10 μM

SMILES | Emax at 10 µM (L6-myotubes [2]; [4]) [%] | Emax at 10 µM (L6-myotubes [1]; [5]) [%] | Emax at 10 µM (L6-myotubes [2]; [6]) [%] | other results
CCCCNC(C)C(O)c1ccc(O)cc1 (stereo not drawn) [Compound 12, 2-(butylamino)-1-(p-hydroxyphenyl)-1-propanol] | 50 to 75 | – | – | Emax at 10 µM (L6-myotubes [1]; [3]): < 25%
CC1(C)CC[C@@H]([C@H](O)c2cccc(O)c2)N1 [Compound 142, m-{(R)-[(S)-5,5-dimethyl-2-pyrrolidinyl] hydroxymethyl}phenol] | 25 to 50 | – | – | Emax at 10 µM (L6-myotubes [1]; [3]): < 25%
CS(=O)(=O)N[C@H]1CC[C@@H](C[C@@H]2CC[C@H]([C@H](O)c3cccc(F)c3)N2)CC1 [Compound 510, (R)-[(2R,5S)-5-{[(1s,4R)-4-(mesylamino)cyclohexyl]methyl}-2-pyrrolidinyl](m-fluorophenyl)methanol] | – | < 25 | > 75 | –
CC12CC(C1)[C@H]([C@H](O)c1cccc(Cl)c1)N2 [Compound 206] | – | < 25 | > 75 | –
CC1(C)C[C@@H]([C@@H](O)c2cncc(F)c2)N1 [Compound 215] | – | < 25 | 25 to 50 | –
CC(C)(NC[C@H](O)c1cccc(F)c1)[C@H]1CC[C@@H](C(=O)O)CC1 [Compound 369] | – | < 25 | 50 to 75 | –
O=C(N[C@H]1CC[C@H](CNC[C@H](O)c2cccc(F)c2)CC1)c1ccccc1 [Compound 315, N-[(1R,4r)-4-{[(R)-2-(m-fluorophenyl)-2-hydroxyethylamino]methyl}cyclohexyl] benzamide] | – | < 25 | > 75 | –
CC(C)(C[C@H]1CC[C@H](NC(=O)C2CC2)CC1)NC[C@H](O)c1cccc(F)c1 [Compound 432] | – | > 75 | > 75 | –
CCCC(C)NC(C)C(O)c1ccc(O)cc1 (stereo not drawn) [Compound 13, 1-(p-hydroxyphenyl)-2-(1-methylbutylamino)-1-propanol] | 50 to 75 | – | – | Emax at 10 µM (L6-myotubes [1]; [3]): < 25%
CCC[C@H]1CCC[C@H]([C@@H](O)c2ccc(F)c(F)c2)N1 [Compound 65] | 25 to 50 | – | – | Emax at 10 µM (L6-myotubes [1]; [3]): < 25%
CC(C)(CC[C@H]1CC[C@H](O)CC1)NC[C@H](O)c1cncc(F)c1 [Compound 289, (R)-2-{1,1-dimethyl-3-[(1r,4S)-4-hydroxycyclohexyl]propylamino}-1-(5-fluoro-3-pyridyl)-1-ethanol] | – | < 25 | 25 to 50 | –
CC(C)(NC[C@H](O)c1cccc(F)c1)[C@H]1CC[C@H](NS(C)(=O)=O)CC1 [Compound 385, (R)-1-(m-fluorophenyl)-2-{1-methyl-1-[(1r,4R)-4-(mesylamino)cyclohexyl]ethylamino}-1-ethanol] | – | < 25 | 50 to 75 | –
CN([C@H]1CC[C@H](CC(C)(C)NC[C@H](O)c2cncc(F)c2)CC1)S(C)(=O)=O [Compound 521, (R)-2-{1,1-dimethyl-2-[(1r,4R)-4-(N-mesyl-N-methylamino)cyclohexyl]ethylamino}-1-(5-fluoro-3-pyridyl)-1-ethanol] | – | < 25 | 50 to 75 | –
CC12CC(C1)[C@H]([C@H](O)c1cncc(F)c1)N2 [Compound 220, (R)-{(R)-1-methyl-2-azabicyclo[[2.1.1]]hex-3-yl}(5-fluoro-3-pyridyl)methanol] | – | < 25 | > 75 | –
CO[C@H]1CC[C@H](C[C@H]2CC[C@H]([C@H](O)c3ccccc3F)N2)CC1 [Compound 339, (R)-[(2R,5R)-5-{[(1r,4R)-4-methoxycyclohexyl]methyl}-2-pyrrolidinyl](o-fluorophenyl)methanol] | – | < 25 | > 75 | –
CC(C)(C)NC[C@H](O)c1ccc(F)cn1 [Compound 96, (S)-2-(tert-butylamino)-1-(5-fluoro-2-pyridyl)-1-ethanol] | 50 to 75 | – | – | Emax at 10 µM (L6-myotubes [1]; [3]): < 25%

SMILES | Emax at 10 µM (L6-myotubes [2]; [4]) [%] | Emax at 10 µM (L6-myotubes [1]; [5]) [%] | Emax at 10 µM (L6-myotubes [2]; [6]) [%] | other results
CC12CCC([C@H](O)c3ccccc3F)(CC1)N2 [Compound 181, (R)-(o-fluorophenyl)(4-methyl-7-azabicyclo[[2.2.1]]hept-1-yl)methanol] | > 75 | – | – | Emax at 10 µM (L6-myotubes [1]; [3]): < 25%
O[C@@H](c1ccccc1F)C12CCC(CCc3cccnc3)(CC1)N2 [Compound 444, (R)-(o-fluorophenyl){4-[2-(3-pyridyl)ethyl]-7-azabicyclo[[2.2.1]]hept-1-yl}methanol] | – | 50 to 75 | – | Biological example 2 (GU) (L6-myotubes [2]; [6]): +++ (If a compound at 10 μM shows activity of more than 75% of that of isoproterenol at 10 μM, the activity is denoted with +++)
CC(=O)N[C@H]1CC[C@H](CCC(C)(C)NC[C@H](O)c2cncc(F)c2)CC1 [Compound 361, N-[(1R,4r)-4-{3-[(R)-2-(5-fluoro-3-pyridyl)-2-hydroxyethylamino]-3-methylbutyl}cyclohexyl] acetamide] | – | < 25 | > 75 | –
CO[C@H]1CC[C@@H](CCCNC[C@H](O)c2cccc(F)c2)CC1 [Compound 258, (R)-1-(m-fluorophenyl)-2-{3-[(1s,4R)-4-methoxycyclohexyl]propylamino}-1-ethanol] | – | 50 to 75 | > 75 | –
CC12CC(C1)[C@@H]([C@@H](O)c1cncc(F)c1)N2 [Compound 221, (S)-{(S)-1-methyl-2-azabicyclo[[2.1.1]]hex-3-yl}(5-fluoro-3-pyridyl)methanol] | – | < 25 | 50 to 75 | –
CC(C)(C[C@H]1CC[C@@H](O)CC1)NC[C@H](O)c1cccc(F)c1 [Compound 302, (R)-2-{1,1-dimethyl-2-[(1s,4S)-4-hydroxycyclohexyl]ethylamino}-1-(m-fluorophenyl)-1-ethanol] | – | < 25 | 50 to 75 | –
CCC[C@@H]1CC[C@H]([C@H](O)c2cccc(F)c2)N1 [Compound 58] | > 75 | – | – | Emax at 10 µM (L6-myotubes [1]; [3]): 25 to 50%
CCC[C@H]1CCC[C@@H]([C@H](O)c2cccc(O)c2)N1 [Compound 122] | 50 to 75 | – | – | Emax at 10 µM (L6-myotubes [1]; [3]): < 25%
CS(=O)(=O)N[C@H]1CC[C@H](C[C@@H]2CC[C@H]([C@H](O)c3cccc(F)c3)N2)CC1 [Compound 504] | – | < 25 | 50 to 75 | –
COc1ccc(C[C@H]2CC[C@H]([C@H](O)c3cncc(F)c3)N2)cc1 [Compound 379, (R)-{(2R,5R)-5-[(p-methoxyphenyl)methyl]-2-pyrrolidinyl}(5-fluoro-3-pyridyl)methanol] | – | < 25 | > 75 | –
O[C@@H](c1ccccc1F)C12CCC(CCc3cccnc3)(CC1)N2 [Compound 547, (S)-(o-fluorophenyl){4-[2-(3-pyridyl)ethyl]-7-azabicyclo[[2.2.1]]hept-1-yl}methanol] | – | – | > 75 | –
CN([C@H]1CC[C@H](CC(C)(C)NC[C@H](O)c2cccc(F)c2)CC1)S(C)(=O)=O [Compound 499, (R)-2-{1,1-dimethyl-2-[(1r,4R)-4-(N-mesyl-N-methylamino)cyclohexyl]ethylamino}-1-(m-fluorophenyl)-1-ethanol] | – | – | 25 to 50 | –
CC(C)NCC(O)c1ccc(O)c(O)c1 (stereo not drawn) [isoprenaline, reference compound] | – | – | – | glucose uptake (L6-myotubes [2]; L6-myotubes, FIGS. 2a-2d): full glucose uptake response
Oc1ccc(C(O)CNCCCC(F)(F)F)cc1 (stereo not drawn) [Compound 31, 1-(p-hydroxyphenyl)-2-(4,4,4-trifluorobutylamino)-1-ethanol] | 50 to 75 | – | – | –
CCCCNCC(O)c1ccc(O)cc1 (stereo not drawn) [Compound 1, 2-(butylamino)-1-(p-hydroxyphenyl)-1-ethanol] | > 75 | – | – | –
